US9578880B2, “Acetyl co-enzyme A carboxylase herbicide resistant plants” (Colorado Wheat Research Foundation, Inc., priority 2011, dated 2017)

Assays:
[1] = system: non-mutant Hatcher winter wheat (Accession 0); experiment: Cross-resistance study, plant survival after other ACCase herbicides (non-mutant check); assay type: in vivo, Triticum aestivum L.; settings: Accession 0 (non-mutant check); clethodim 65, sethoxydim 264, fluazifop 361 g ai ha^-1, clethodim + 10.5 g ai ha^-1 quizalofop; 28 DAT
Experimental: (§1) A cross-resistance study was conducted within the ACCase herbicide mode of action using herbicides normally lethal to wheat. Clethodim, sethoxydim, and fluazifop were used at rates of 65, 264, and 361 g ai ha^−1, plus a treatment of clethodim and 10.5 g ai ha^−1 quizalofop. Seven DAT the tops of plants were cut off above the newest above-ground growing point. Binomial evaluation of plant survival was performed 28 DAT. Tolerance of quizalofop mutants to clethodim and sethoxydim was low (Table 1). The presence of any cross tolerance presents evidence that combining multiple homologous resistant ACCase genes into a single plant could lead to resistance to additional herbicides. At this stage only a third of the total ACCase in the plant would have a mutation and contain tolerance to ACCase inhibitors if the mutation is target-site-based.

[2] = system: quizalofop tolerant mutant wheat accessions; experiment: Cross-resistance study, plant survival after other ACCase herbicides (quizalofop tolerant mutants); assay type: in vivo, Triticum aestivum L.; settings: 28 DAT
Experimental: as §1

[3] = system: ACCase, D genome nucleotide substitution (Ala2004Val); experiment: In-vitro ACCase enzyme assay; assay type: biochemical, Triticum aestivum L.; settings: for ACCase tolerance compared with background: D genome substitution
Experimental: (§2) An in-vitro enzyme assay was conducted to observe ACCase in conjunction with quizalofop directly to determine if the presence of ACCase mutations decreases the ability of herbicides to inhibit ACCase activity. Four quizalofop concentrations of 0.1, 1, 10, and 100 μM were included in the assay along with a non-treated control. The experiment included four accessions which included a representative from the three mutations detected and non-mutagenized wheat. […] Calculated at the I25 level, the resistant to susceptible value for the A genome was 4.57, the B genome was 3.57 and the D genome was 10.86.

[4] = system: ACCase of non-mutagenized Hatcher winter wheat; experiment: In-vitro ACCase enzyme assay; assay type: biochemical, Triticum aestivum L.; settings: 0.1, 1, 10, 100 μM
Experimental: as §2

[5] = system: ACCase, A genome nucleotide substitution (Ala2004Val); experiment: In-vitro ACCase enzyme assay; assay type: biochemical, Triticum aestivum L.
Experimental: as §2

[6] = system: ACCase, B genome nucleotide substitution (Ala2004Val); experiment: In-vitro ACCase enzyme assay; assay type: biochemical, Triticum aestivum L.
Experimental: as §2

[7] = system: quizalofop-tolerant wheat accessions vs non-mutant Hatcher wheat; experiment: Visual evaluation of injury to quizalofop; assay type: in vivo, Triticum aestivum L.; settings: 21.05 g ai ha^-1; 28 DAT; nearly all of 18 quizalofop-tolerant accessions
Experimental: 18 quizalofop-tolerant accessions were treated with 21.05 g ai ha^−1 quizalofop, a discriminating dose based on previous studies. Plants were evaluated 28 days after treatment (DAT) for visible injury to quizalofop on a scale of 0 to 100%, with 0 being no injury and 100 being complete desiccation. Nearly all accessions evaluated in this study appeared more tolerant to quizalofop than non-mutant Hatcher wheat (FIG. 5). The accessions contained few completely dead plants, with the exception of the one accession not different than the background.

[8] = Accession 1, clethodim 65, sethoxydim 264, fluazifop 361 g ai ha^-1, clethodim + 10.5 g ai ha^-1 quizalofop

Compound | survival after application of ACCase herbicide [1] | survival after application of ACCase herbicide [2, 8] | survival after application of ACCase herbicide ([2]; Accession 2, same rates) | survival after application of ACCase herbicide ([2]; Accession 3, same rates) | survival after application of ACCase herbicide ([2]; Accession 4, same rates) | survival after application of ACCase herbicide ([2]; Accession 5, same rates) | survival after application of ACCase herbicide ([2]; Accession 6, same rates) | survival after application of ACCase herbicide ([2]; Accession 7, same rates) | survival after application of ACCase herbicide ([2]; Accession 8, same rates) | survival after application of ACCase herbicide ([2]; Accession 9, same rates) | survival after application of ACCase herbicide ([2]; Accession 10, same rates) | survival after application of ACCase herbicide ([2]; Accession 11, same rates) | survival after application of ACCase herbicide ([2]; Accession 12, same rates) | survival after application of ACCase herbicide ([2]; Accession 13, same rates) | survival after application of ACCase herbicide ([2]; Accession 14, same rates) | survival after application of ACCase herbicide ([2]; Accession 15, same rates) | survival after application of ACCase herbicide ([2]; Accession 16, same rates) | survival after application of ACCase herbicide ([2]; Accession 17, same rates) | other results
CCSC(C)CC1CC(=O)C(/C(CC)=N/OC/C=C/Cl)=C(O)C1 (stereo not shown) [Clethodim, clethodim] | 0% | 10% | 0% | 0% | 0% | 0% | 0% | 0% | 25% | 17% | 0% | 0% | 17% | 0% | 0% | 0% | 0% | 0% | 
CC(Oc1ccc(Oc2ccc(C(F)(F)F)cn2)cc1)C(=O)O (stereo not shown) [Fluazifop, fluazifop] | 0% | 0% | 0% | 0% | 0% | 0% | 0% | 0% | 0% | 0% | 0% | 0% | 0% | 0% | 0% | 0% | 0% | 0% | 
CCC/C(=N\OCC)C1=C(O)CC(CC(C)SCC)CC1=O (stereo not shown) [Sethoxydim, sethoxydim] | 0% | 0% | 0% | 0% | 0% | 0% | 0% | 0% | 0% | 0% | 0% | 8% | 8% | 0% | 0% | 0% | 0% | 0% | Tolerance of quizalofop mutants (cross-resistance) ([2]; clethodim 65, sethoxydim 264 g ai ha^-1): low
CC(Oc1ccc(Oc2cnc3cc(Cl)ccc3n2)cc1)C(=O)O (stereo not shown) [quizalofop] |  |  |  |  |  |  |  |  |  |  |  |  |  |  |  |  |  |  | ACCase tolerance compared with background ([3]; 10 μM): higher than background levels of tolerance; ACCase tolerance compared with background ([3]; 100 μM): higher than background tolerance; resistant to susceptible value calculated at the I25 level ([3]; D genome mutant vs non-mutagenized wheat): 10.86; sensitivity of ACCase compared with the mutant accessions [4]: greater sensitivity; ACCase tolerance compared with background ([5]; 100 μM, A genome substitution): higher than background tolerance; resistant to susceptible value calculated at the I25 level ([5]; A genome mutant vs non-mutagenized wheat): 4.57; ACCase tolerance compared with background ([6]; 10 μM, B genome substitution): higher than background levels of tolerance; resistant to susceptible value calculated at the I25 level ([6]; B genome mutant vs non-mutagenized wheat): 3.57; visible injury, tolerance of accessions compared with non-mutant Hatcher wheat [7]: more tolerant
